Columns and labels:
Assay type in all cases: cell-based
RXRα = biological target: T1, RXRα (Homo sapiens, UniProt P19793); test: Gal4-hybrid reporter gene assay RXRα; settings: mean ± S.E.M., n ≥ 3
T1 construct: expressed in transfected cells; host or cells: HEK293T
T1 sequence (P19793 227-458 limits assumed): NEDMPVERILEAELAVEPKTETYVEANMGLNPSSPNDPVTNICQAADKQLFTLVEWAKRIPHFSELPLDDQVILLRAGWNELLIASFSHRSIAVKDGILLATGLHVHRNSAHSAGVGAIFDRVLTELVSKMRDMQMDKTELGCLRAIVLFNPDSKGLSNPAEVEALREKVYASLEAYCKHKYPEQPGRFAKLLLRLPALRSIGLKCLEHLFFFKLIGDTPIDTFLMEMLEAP
Experimental: (§1) NR modulation was determined as described previously[45] in Gal4 hybrid reporter gene assays in HEK293T cells (German Collection of Microorganisms and Cell Culture GmbH, DSMZ) using pFR-Luc (Stratagene, La Jolla, CA, USA; reporter), pRL-SV40 (Promega, Madison, WI, USA; internal control) and the hybrid receptor clones pFA-CMV-hTHRα-LBD,[46] pFA-CMV-hPPARγ-LBD,[47] pFA-CMV-hFXR-LBD,[48] and pFA-CMV-hRXRα-LBD,[49] coding for the hinge region and ligand binding domain of the canonical isoform of the respective NR. Cells were cultured in Dulbecco's modified Eagle's medium (DMEM), high glucose supplemented with 10% fetal calf serum (FCS), sodium pyruvate (1 mM), penicillin (100 U mL^−1), and streptomycin (100 μg mL^−1) at 37 °C and 5% CO2 and seeded in 96-well plates (3 × 10^4 cells per well). After 24 h, medium was changed to Opti-MEM without supplements and cells were transiently transfected using Lipofectamine LTX reagent (Invitrogen, Carlsbad, CA, USA) according to the manufacturer's protocol. Five hours after transfection, cells were incubated with the test compounds in Opti-MEM supplemented with penicillin (100 U mL^−1), streptomycin (100 μg mL^−1) and 0.1% DMSO for 16 h before luciferase activity was measured using the Dual-Glo Luciferase Assay System (Promega) according to the manufacturer's protocol on a Tecan Spark luminometer (Tecan Deutschland GmbH, Crailsheim, Germany). Firefly luminescence was divided by Renilla luminescence and multiplied by 1000 resulting in relative light units (RLU) to normalize for transfection efficiency and cell growth. Fold activation was obtained by dividing the mean RLU of test compound by the mean RLU of the untreated control. All samples were tested in at least three biologically independent experiments in duplicates. For dose–response curve fitting and calculation of EC50 values, the equation “[agonist] vs. response − variable slope (four parameters)” was used in GraphPad Prism (version 7.00, GraphPad Software, La Jolla, CA, USA). For selectivity profiling, the hybrid reporter gene assay was performed with Gal4 fusion receptor plasmids for RARα, PPARα, PPARδ, VDR, CAR and LXRα. The following reference agonists were used: triiodothyronine (1 μM, THR), all-trans retinoic acid (1 μM, RAR), GW7647 (1 μM, PPARα), pioglitazone (1 μM, PPARγ), L165041 (1 μM, PPARδ), calcitriol (1 μM, VDR), CITCO (1 μM, CAR), T0901317 (1 μM, LXR), GW4064 (1 μM, FXR), bexarotene (1 μM, RXR).

PPARγ = biological target: T2, PPARγ (Homo sapiens, UniProt P37231); test: Gal4-hybrid reporter gene assay PPARγ; settings: mean ± S.E.M., n ≥ 3
T2 construct: expressed in transfected cells; host or cells: HEK293T
T2 sequence (P37231 238-503 limits assumed): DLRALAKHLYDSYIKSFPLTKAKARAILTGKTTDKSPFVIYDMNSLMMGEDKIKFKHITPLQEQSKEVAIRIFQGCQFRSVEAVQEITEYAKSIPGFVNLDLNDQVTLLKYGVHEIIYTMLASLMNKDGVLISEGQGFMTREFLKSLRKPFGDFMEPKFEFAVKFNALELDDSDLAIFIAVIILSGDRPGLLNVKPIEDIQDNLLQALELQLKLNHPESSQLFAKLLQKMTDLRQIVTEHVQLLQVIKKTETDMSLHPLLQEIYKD
Experimental: as §1

THRα = biological target: T3, THRα (Homo sapiens, UniProt P10827); test: Gal4-hybrid reporter gene assay THRα; settings: mean ± S.E.M., n ≥ 3
T3 construct: expressed in transfected cells; host or cells: HEK293T
T3 sequence (P10827 128-410 isoform P10827-2 limits assumed): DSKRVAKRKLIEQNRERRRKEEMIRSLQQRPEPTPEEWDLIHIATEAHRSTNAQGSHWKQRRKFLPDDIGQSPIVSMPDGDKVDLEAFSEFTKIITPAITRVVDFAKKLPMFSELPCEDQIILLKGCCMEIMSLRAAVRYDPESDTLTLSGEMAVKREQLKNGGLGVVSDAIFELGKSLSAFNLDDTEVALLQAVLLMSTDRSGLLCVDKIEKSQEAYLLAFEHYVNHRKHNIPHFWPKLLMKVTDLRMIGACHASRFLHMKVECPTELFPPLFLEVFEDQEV
Experimental: as §1

FXR = biological target: T4, FXR (Homo sapiens, UniProt Q96RI1); test: Gal4-hybrid reporter gene assay FXR; settings: HEK293T, Gal4-hybrid reporter; Inactive = tested 1–300 μM; mean ± S.E.M., n ≥ 3
T4 construct: expressed in transfected cells; host or cells: HEK293T
T4 sequence (Q96RI1 262-486 limits assumed): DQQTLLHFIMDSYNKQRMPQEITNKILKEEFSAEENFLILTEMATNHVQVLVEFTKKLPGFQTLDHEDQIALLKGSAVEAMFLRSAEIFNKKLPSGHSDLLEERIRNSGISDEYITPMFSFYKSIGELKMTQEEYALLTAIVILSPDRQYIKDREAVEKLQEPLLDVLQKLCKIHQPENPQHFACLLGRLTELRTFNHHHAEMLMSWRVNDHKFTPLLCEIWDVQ
Experimental: as §1

[1] = HEK293T, Gal4-hybrid reporter, Inactive = tested 1–300 μM
[2] = maximum reporter activation vs DMSO (0.1%) treated cells

With `C/C(=C\C(=O)O)c1ccc(C(F)(F)F)cc1` [compound 91] the EC50 (RXRα; [1]) was 134 ± 41 µM, the “max. fold activation RXRα” value (RXRα; [2]) was “(1.9 ± 0.9-fold)” and the EC50 (PPARγ; [1]) was 255 ± 15 µM. For the same compound, the “max. fold activation PPARγ” value (PPARγ; [2]) was “(4.3 ± 0.2-fold)”, the EC50 (THRα; [1]) was 92 ± 29 µM and the “max. fold activation THRα” value (THRα; [2]) was “(2.7 ± 0.3-fold)”. For the same compound, the “EC50 FXR” value (FXR) was “Inactive”.
